Data from PubChem BioAssay (NCI).
Values joined by “and” are separate entries in the source; they are usually repeats but may differ in a detail not shown here. Equal values may be shown once.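 A five-concentration, 48-hour dose response in 96-well plates underlies each endpoint, interpolated linearly between surrounding concentrations. The concentration for 50% growth inhibition is given as GI50. TGI: total growth inhibition.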

Legend:
Test in all cases: growth of human tumour cells (NCI), 48 h
NCI-H460 lung = test system: NCI-H460 lung
NCI-H226 lung = test system: NCI-H226 lung
K-562 leukemia = test system: K-562 leukemia
SR leukemia = test system: SR leukemia
HCT-116 colon = test system: HCT-116 colon
EKVX NSCLC = test system: EKVX NSCLC
PC-3 prostate = test system: PC-3 prostate
U251 CNS = test system: U251 CNS
LOX IMVI melanoma = test system: LOX IMVI melanoma
MDA-MB-231 breast = test system: MDA-MB-231 breast
KM12 colon = test system: KM12 colon
786-0 renal = test system: 786-0 renal
UO-31 renal = test system: UO-31 renal
IGROV1 ovarian = test system: IGROV1 ovarian
HCT-15 colon = test system: HCT-15 colon
MOLT-4 leukemia = test system: MOLT-4 leukemia
RXF 393 renal = test system: RXF 393 renal
TK-10 renal = test system: TK-10 renal
T-47D breast = test system: T-47D breast
ACHN renal = test system: ACHN renal
HOP-62 NSCLC = test system: HOP-62 NSCLC
HOP-92 NSCLC = test system: HOP-92 NSCLC
SW-620 colon = test system: SW-620 colon
UACC-62 melanoma = test system: UACC-62 melanoma
A498 renal = test system: A498 renal
DU-145 prostate = test system: DU-145 prostate
HT29 colon = test system: HT29 colon
BT-549 breast = test system: BT-549 breast
SNB-19 CNS = test system: SNB-19 CNS
COLO 205 colon = test system: COLO 205 colon
OVCAR-4 ovarian = test system: OVCAR-4 ovarian
A549 NSCLC = test system: A549 NSCLC
HS 578T breast = test system: HS 578T breast
SK-MEL-2 melanoma = test system: SK-MEL-2 melanoma
UACC-257 melanoma = test system: UACC-257 melanoma
RPMI-8226 leukemia = test system: RPMI-8226 leukemia
CAKI-1 renal = test system: CAKI-1 renal
SNB-75 CNS = test system: SNB-75 CNS
OVCAR-8 ovarian = test system: OVCAR-8 ovarian
OVCAR-3 ovarian = test system: OVCAR-3 ovarian
SK-OV-3 ovarian = test system: SK-OV-3 ovarian
SF-295 CNS = test system: SF-295 CNS
NCI/ADR-RES ovarian = test system: NCI/ADR-RES ovarian
SK-MEL-5 melanoma = test system: SK-MEL-5 melanoma
SF-268 CNS = test system: SF-268 CNS
HCC-2998 colon = test system: HCC-2998 colon
NCI-H522 lung = test system: NCI-H522 lung
MCF7 breast = test system: MCF7 breast
MALME-3M melanoma = test system: MALME-3M melanoma
M14 melanoma = test system: M14 melanoma
MDA-MB-435 = test system: MDA-MB-435
HL-60(TB) leukemia = test system: HL-60(TB) leukemia
OVCAR-5 ovarian = test system: OVCAR-5 ovarian
SN12C renal = test system: SN12C renal
CCRF-CEM leukemia = test system: CCRF-CEM leukemia
NCI-H23 lung = test system: NCI-H23 lung

With `O=C(Nc1cccc(-n2ccc3c(NC(=O)c4ccccc4)nccc32)c1)c1ccc(Cl)c(C(F)(F)F)c1` the GI50 (NCI-H460 lung) was 0.116 µM and 0.481 µM, the TGI (NCI-H226 lung) was 10.2 µM and > 100 µM and the TGI (K-562 leukemia) was 6.77 µM and 50.9 µM. For the same molecule, the TGI (SR leukemia) was 6.71 µM and 15.7 µM, the GI50 (HCT-116 colon) was 0.136 µM and 0.513 µM and the TGI (EKVX NSCLC) was 17.1 µM and > 100 µM. The GI50 (PC-3 prostate) was 0.143 µM and 0.95 µM, the GI50 (U251 CNS) was 0.125 µM and 0.759 µM and the GI50 (LOX IMVI melanoma) was 0.163 µM and 0.612 µM.

`OCC1OC(n2cnc3c(Cl)nc(Nc4ccc(Cl)c(Cl)c4)nc32)CC1O` (centres undefined) was tested, and the TGI (MDA-MB-231 breast) was 23.5 µM, the TGI (KM12 colon) was 17.7 µM and the TGI (786-0 renal) was 19.4 µM. The TGI (UO-31 renal) was 31.4 µM, the TGI (IGROV1 ovarian) was 27.8 µM and the TGI (HCT-15 colon) was 21.7 µM. The TGI (MOLT-4 leukemia) was 12.5 µM, the TGI (RXF 393 renal) was 19.5 µM and the TGI (TK-10 renal) was 35.6 µM. It also gave a TGI (T-47D breast) of over 50 µM, a TGI (ACHN renal) of 19.9 µM and a TGI (HOP-62 NSCLC) of 23 µM. The TGI (HOP-92 NSCLC) was 16.3 µM, the TGI (NCI-H460 lung) was 16.8 µM and the TGI (NCI-H226 lung) was 20.2 µM. For the same molecule, the TGI (SW-620 colon) was 27.5 µM, the TGI (UACC-62 melanoma) was 17.2 µM and the TGI (A498 renal) was 18.9 µM. The TGI (DU-145 prostate) was 48.6 µM, the TGI (HT29 colon) was 15.2 µM and the TGI (BT-549 breast) was 22.3 µM. For the same molecule, the TGI (SNB-19 CNS) was over 50 µM, the TGI (COLO 205 colon) was 20.5 µM and the TGI (OVCAR-4 ovarian) was 41.8 µM. For the same molecule, the TGI (A549 NSCLC) was over 50 µM, the TGI (HS 578T breast) was 32.3 µM and the TGI (SK-MEL-2 melanoma) was 19.2 µM. For the same molecule, the TGI (K-562 leukemia) was 49.4 µM, the TGI (UACC-257 melanoma) was 20 µM and the TGI (RPMI-8226 leukemia) was 29.4 µM. For the same molecule, the TGI (CAKI-1 renal) was 33.7 µM, the TGI (HCT-116 colon) was 28.9 µM and the TGI (SNB-75 CNS) was 42.2 µM. The TGI (OVCAR-8 ovarian) was 22.6 µM, the TGI (OVCAR-3 ovarian) was 46.1 µM and the TGI (SK-OV-3 ovarian) was 33.4 µM. It also gave a TGI (SF-295 CNS) of 19.3 µM, a TGI (NCI/ADR-RES ovarian) of 25.3 µM and a TGI (SK-MEL-5 melanoma) of 16.9 µM. The TGI (SF-268 CNS) was 28.6 µM, the TGI (HCC-2998 colon) was 17.1 µM and the TGI (NCI-H522 lung) was 18.1 µM. For the same molecule, the TGI (MCF7 breast) was 27.5 µM, the TGI (MALME-3M melanoma) was 21.2 µM and the TGI (M14 melanoma) was 32 µM. The TGI (MDA-MB-435) was 22.3 µM, the TGI (EKVX NSCLC) was 28.2 µM and the TGI (PC-3 prostate) was 37.1 µM. For the same molecule, the TGI (HL-60(TB) leukemia) was 16.4 µM, the TGI (U251 CNS) was 23.8 µM and the TGI (OVCAR-5 ovarian) was over 50 µM. It also gave a TGI (LOX IMVI melanoma) of 16 µM, a TGI (SN12C renal) of 23.4 µM and a TGI (CCRF-CEM leukemia) of 18.1 µM. It also gave a TGI (NCI-H23 lung) of 22.6 µM.
